Results on 4 compounds are retold here after ChEMBL document CHEMBL6092185, “Discovery of glycosidated glycyrrhetinic acid derivatives: Natural product-based soluble epoxide hydrolase inhibitors” (Eur J Med Chem, 2024).

Data set [1] can be described thus: in vivo. To be noted: BALB/c, mouse, liver/plasma, po, 20 mg/kg.
Description: Ratio of AUC (0 to 24 hrs) in BALB/c mouse liver to plasma at 20 mg/kg, IG measured upto 24 hrs by LC-MS/MS analysis
Data set [2] is described as follows: in vivo. The following applies: BALB/c, mouse, liver, po, 20 mg/kg.
Description: Cmax in BALB/c mouse liver at 20 mg/kg, IG measured upto 24 hrs by LC-MS/MS analysis
The nature of data set [3]: Cytotoxicity against HEK293T cells incubated overnight by CCK8 assay. To be noted: human.
Data set [4] in a line: in vivo. The following applies: BALB/c, mouse, liver/plasma, po, 20 mg/kg. This is another data set of the same source.
Description: Ratio of Cmax in BALB/c mouse liver to plasma at 20 mg/kg, IG measured upto 24 hrs by LC-MS/MS analysis
Data set [5] in a line: in vivo. The following applies: BALB/c, mouse, plasma, po, 20 mg/kg.
Description: Cmax in BALB/c mouse plasma at 20 mg/kg, IG measured upto 24 hrs by LC-MS/MS analysis
The nature of data set [6]: in vivo. The following applies: BALB/c, mouse, plasma, po, 20 mg/kg. The source holds these as a separate data set.
Description: AUC (0 to 24 hrs) in BALB/c mouse plasma at 20 mg/kg, IG measured upto 24 hrs by LC-MS/MS analysis
Data set [7] concerns the target T1, Bifunctional epoxide hydrolase 2 (Mus musculus, UniProt P34914).
T1 sequence (P34914 whole entry): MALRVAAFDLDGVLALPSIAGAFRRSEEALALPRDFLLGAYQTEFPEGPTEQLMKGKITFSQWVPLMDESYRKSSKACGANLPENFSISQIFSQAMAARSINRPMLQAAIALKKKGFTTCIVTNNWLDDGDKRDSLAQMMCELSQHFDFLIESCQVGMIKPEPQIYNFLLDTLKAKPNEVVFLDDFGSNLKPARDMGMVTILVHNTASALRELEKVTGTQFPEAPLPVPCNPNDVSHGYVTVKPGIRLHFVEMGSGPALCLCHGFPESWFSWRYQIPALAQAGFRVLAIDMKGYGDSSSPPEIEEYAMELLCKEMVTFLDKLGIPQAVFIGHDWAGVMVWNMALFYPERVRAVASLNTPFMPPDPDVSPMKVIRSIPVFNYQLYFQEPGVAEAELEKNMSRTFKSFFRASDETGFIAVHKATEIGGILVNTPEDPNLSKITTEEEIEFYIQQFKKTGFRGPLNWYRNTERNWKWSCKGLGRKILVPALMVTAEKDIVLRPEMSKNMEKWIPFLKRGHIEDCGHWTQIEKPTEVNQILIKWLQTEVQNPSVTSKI
Description: Inhibition of C57BL/6J mouse cortex sEH using 14,15-EET as substrate preincubated for 15 mins followed by substrate addition measured after 2 hrs by UPLC-MS/MS analysis.

Data set [8] is described as follows: Cytotoxicity against human HepG2 cells incubated overnight by CCK8 assay. On the technique in general: Tetrazolium dyes change colour on reduction, which living cells bring about.
The species entered for data set [9] is Mus musculus. Description: animal or person. The following applies: BALB/c, po, 1 h, read-out: INH.
Description: Anti-inflammatory activity in BALB/c mouse model of Carrageenan-induced paw edema assessed as inhibition of edema at 20 mg/kg, IG measured after 1 hr relative to control
Data set [10] addresses T2, Bifunctional epoxide hydrolase 2 (Homo sapiens, UniProt P34913).
T2 sequence (P34913 whole entry): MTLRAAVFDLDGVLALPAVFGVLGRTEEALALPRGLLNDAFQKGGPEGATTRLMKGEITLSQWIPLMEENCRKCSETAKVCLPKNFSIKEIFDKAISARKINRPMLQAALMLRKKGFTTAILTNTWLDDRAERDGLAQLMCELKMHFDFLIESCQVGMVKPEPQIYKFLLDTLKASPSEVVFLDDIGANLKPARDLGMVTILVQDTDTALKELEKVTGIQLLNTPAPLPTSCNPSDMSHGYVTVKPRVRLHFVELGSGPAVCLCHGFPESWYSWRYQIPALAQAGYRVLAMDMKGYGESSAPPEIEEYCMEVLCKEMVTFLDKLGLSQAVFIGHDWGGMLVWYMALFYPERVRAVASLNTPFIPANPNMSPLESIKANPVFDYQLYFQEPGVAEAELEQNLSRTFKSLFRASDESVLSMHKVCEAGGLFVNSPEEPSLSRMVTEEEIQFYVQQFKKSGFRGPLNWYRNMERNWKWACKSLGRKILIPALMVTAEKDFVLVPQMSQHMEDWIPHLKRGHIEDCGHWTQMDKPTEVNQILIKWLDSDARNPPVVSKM
The data set is described as follows: Inhibition of sEH (unknown origin) using PHOME as substrate incubated for 1 hr by fluorimetric assay.

Data set [11] is filed under the species Mus musculus. Description: animal or person. The following applies: BALB/c, po, 6 h, read-out: INH.
Description: Anti-inflammatory activity in BALB/c mouse model of Carrageenan-induced paw edema assessed as inhibition of edema at 20 mg/kg, IG measured upto 6 hrs relative to control

Molecules are shown by their SMILES.

One may read the Kp as tissue or fluid exposure divided by exposure in the circulation. As usually defined, the Cmax is the peak of the concentration-time curve. In general, IC50 refers to the concentration at which inhibition is half-maximal. Higher therefore signals weaker potency. As a reminder, the AUC(0-t) is the area under the concentration-time curve up to a stated or last time point. Low values mean less exposure, high ones more exposure. As for `CC1(C)[C@@H](O[C@H]2O[C@H](CO)[C@@H](O)[C@H](O)[C@@H]2O)CC[C@]2(C)[C@H]3C(=O)C=C4[C@H]5C[C@@](C)(CNC(=O)NCC6CCOCC6)CC[C@]5(C)CC[C@@]4(C)[C@]3(C)CC[C@@H]12`, the values for the Kp at 24 h in [1] and in data set [4] were 8.91 and 11, respectively. For the same compound, the results for the Cmax at 24 h in data set [2] and in data set [5] were 2140 ng/g and 194 ng/mL, respectively. Besides, the IC50 was 46.6 µM in data set [3], 0.121 µM in data set [7] and 17.6 µM in data set [8]. Moreover, the AUC(0-t) at 24 h in [6] amounted to 655 ng·h/mL.

On to `CCC(=O)N1CCC(CNC(=O)NC[C@@]2(C)CC[C@]3(C)CC[C@]4(C)C(=CC(=O)[C@@H]5[C@@]6(C)CC[C@H](O[C@H]7O[C@H](CO)[C@@H](O)[C@H](O)[C@@H]7O)C(C)(C)[C@@H]6CC[C@]54C)[C@@H]3C2)CC1`, for which, in [9], the inhibition in vivo at 20 mg/kg is 38.4%. Besides, in data set [7], inhibition was half-maximal at 0.182 µM (IC50).

`C[C@H]1[C@H](C)CC[C@]2(C(=O)O)CC[C@]3(C)C(=CC[C@@H]4[C@@]5(C)CC[C@H](O)C(C)(C)[C@@H]5CC[C@]43C)[C@H]12` [URSOLIC ACID] displayed an IC50 in data set [10] of 11.1 µM.

As to `CC1(C)[C@@H](O[C@H]2OC[C@@H](O)[C@@H](O)[C@@H]2O)CC[C@]2(C)[C@H]3C(=O)C=C4[C@H]5C[C@@](C)(CNC(=O)NCC6CCOCC6)CC[C@]5(C)CC[C@@]4(C)[C@]3(C)CC[C@@H]12`, in data set [11], the inhibition in vivo at 20 mg/kg was determined as 37.4%. This compound gave an IC50 in [7] of 0.0861 µM.
